Tests used:
Test in all cases: Minimum Inhibitory Concentration (MIC) growth test
Assay type in all cases: cell-based
[1] = tested on: Burkholderia cepacia, ATCC 25416; design: key to growth of organisms: − = no growth; + = low growth; ++ = moderate growth; +++ = high growth
Excerpt: (§1) This example intends to analyze the microbial activity of the mixture of invention compared to the individual activity of the mixture components using the methodology that determines the minimal concentration of the substance or mixture that inhibits microorganism growth.
(§2) The tested micro-organisms were: • Staphylococcus aureus, ATCC 6538 • Escherichia coli, ATCC 8739 • Pseudomonas aeruginosa, ATCC 9027 • Burkholderia cepacia, ATCC 25416 • Candida albicans, ATCC 10231 • Aspergillus brasiliensis, ATCC 16404
(§3) The samples of the table above were initially prepared with an initial concentration of 3% based on their solubility in water, and then diluted to achieve the following concentrations: 1.5%; 0.75%; 0.375%; 0.1875%; 0.09375%.
(§4) The dilutions were obtained as follows: (a) to a first test tube containing 5 mL of tripticase soy broth (TSB), 5 mL of 3% concentration solution were added and the mixture was vortexed. 5 mL of the contents of this tube were removed and added to a second tube containing 5 mL of TSB and the mixture was vortexed. This procedure was repeated until obtaining the various concentrations.
(§5) The tested organisms were prepared as typical organism inoculants, under the form of a saline suspension. The concentration of bacterial inoculants was approximately 1×10^6 cfu/mL (“colony-forming unit per milliliter”). The concentration of fungal inoculants was approximately 1×10^5 spores/mL. In the sequence, each sample solution was inoculated with 0.1 mL of organism inoculum and vortexed. The tubes containing bacteria were incubated for 24 hours at 35° C. and the tubes containing fungi were incubated for 48 hours at 25° C.
(§6) An aliquot of 0.1 mL from these tubes was transferred to a tube having 9 mL of Letheen broth containing neutralizing agents. These Letheen tubes were again incubated for 48 hours with Letheen under incubation temperature for bacteria or fungi. Then, a swab previously wet with TSB was put in contact with sample solutions with concentrations 1.5%; 0.75%; 0.375%; 0.1875% and 0.09375%, and then they were swiped over the surface of culture plates (for bacteria: Letheen agar, AOAC—Association of Official Analytical Chemists; for fungi: Mycophil® agar of low pH with Tween® 20 polysorbate surfactant).

[2] = tested on: Escherichia coli, ATCC 8739; design: key to growth of organisms: − = no growth; + = low growth; ++ = moderate growth; +++ = high growth
Excerpt: as §1, §2, §3, §4, §5, §6

[3] = tested on: Staphylococcus aureus, ATCC 6538; design: key to growth of organisms: − = no growth; + = low growth; ++ = moderate growth; +++ = high growth
Excerpt: as §1, §2, §3, §4, §5, §6

[4] = tested on: Aspergillus brasiliensis, ATCC 16404; design: key: − = no growth; + = low growth; ++ = moderate growth; +++ = high growth
Excerpt: as §1, §2, §3, §4, §5, §6

[5] = tested on: Candida albicans, ATCC 10231; design: key: − = no growth; + = low growth; ++ = moderate growth; +++ = high growth
Excerpt: as §1, §2, §3, §4, §5, §6

[6] = tested on: Pseudomonas aeruginosa, ATCC 9027; design: key: − = no growth; + = low growth; ++ = moderate growth; +++ = high growth
Excerpt: as §1, §2, §3, §4, §5, §6

## OCCCc1ccccc1 [Sample 1, Phenylpropanol]
[1]; concentration of 1.5%
  inhibition of growth (in words): not able to inhibit the growth
[1]; sample concentration 0.09375%
  growth of organisms: +
[1]; sample concentration 0.1875%
  growth of organisms: +
[1]; sample concentration 0.375%
  growth of organisms: +
[1]; sample concentration 0.75%
  growth of organisms: +
[1]; sample concentration 1.5%
  growth of organisms: +
[2]; concentration of 1.5%
  inhibition of growth (in words): not able to inhibit the growth
[2]; sample concentration 0.09375%
  growth of organisms: +
[2]; sample concentration 0.1875%
  growth of organisms: +
[2]; sample concentration 0.375%
  growth of organisms: +
[2]; sample concentration 0.75%
  growth of organisms: +
[2]; sample concentration 1.5%
  growth of organisms: +
[3]; concentration of 1.5%
  inhibition of growth (in words): not able to inhibit the growth
[3]; sample concentration 0.09375%
  growth of organisms: +
[3]; sample concentration 0.1875%
  growth of organisms: +
[3]; sample concentration 0.375%
  growth of organisms: +
[3]; sample concentration 0.75%
  growth of organisms: +
[3]; sample concentration 1.5%
  growth of organisms: +
[4]; sample concentration 0.09375%
  growth of organisms: +
[4]; sample concentration 0.1875%
  growth of organisms: +
[4]; sample concentration 0.375%
  growth of organisms: +
[4]; sample concentration 0.75%
  growth of organisms: −
[4]; sample concentration 1.5%
  growth of organisms: −
[5]; sample concentration 0.09375%
  growth of organisms: +
[5]; sample concentration 0.1875%
  growth of organisms: +
[5]; sample concentration 0.375%
  growth of organisms: +
[5]; sample concentration 0.75%
  growth of organisms: −
[5]; sample concentration 1.5%
  growth of organisms: −
[6]; sample concentration 0.09375%
  growth of organisms: +
[6]; sample concentration 0.1875%
  growth of organisms: +
[6]; sample concentration 0.375%
  growth of organisms: +
[6]; sample concentration 0.75%
  growth of organisms: +
[6]; sample concentration 1.5%
  growth of organisms: −

From US10123541B2, “Biocidal mixture, use of biocidal mixture and compositions comprising a biocidal mixture” (ISP Investments LLC, priority 2014, dated 2018)
